# Source: patent US20230265151A1, “GIP/GLP1 CO-AGONIST COMPOUNDS” (priority 2020, published 2023)
# Read-outs that look alike come from different tables or passages of the source. *1 amine or outer side, *2 acyl side, *3 side chain or, on linkers, in order; H or OH if unused. Where a SMILES comes first, the peptide text is derived from it. Side-chain parts run from the residue outwards. [ ]: non-standard residue; d: D form. The star is where a group is joined. αMePhe(2-F) = C[C@](N)(Cc1ccccc1F)C(=O)O; γGlu = O=C(O)[C@H](CCC(=O)[*:2])N[*:1]; C14 diacid = O=C(O)CCCCCCCCCCCCC(=O)*; εLys = N[C@@H](CCCCN[*:1])C(=O)[*:2]; αMeY = C[C@](N)(Cc1ccc(O)cc1)C(=O)O; 4Pal = N[C@@H](Cc1ccncc1)C(=O)O; αMeL = CC(C)C[C@](C)(N)C(=O)O; Orn = NCCC[C@H](N)C(=O)O; AEEA = NCCOCCOCC(=O)O; Aib = CC(C)(N)C(=O)O
# How the values were obtained:
# Format in all cases: cell-based
# hGIPR = target: T1, hGIPR (Homo sapiens, UniProt P48546); assay: Functional cAMP formation (HTRF) in HEK-293 clonal cells expressing hGIPR, 0.1% bovine casein, without or with 1.0% human serum albumin; details: for EC50: geometric mean, read-out: hGIPR EC50, nM (SEM, n); for Emax: read-out: hGIPR Emax, % ± SEM
# T1 construct: expressed in transfected cells
# T1 sequence (P48546 22-466): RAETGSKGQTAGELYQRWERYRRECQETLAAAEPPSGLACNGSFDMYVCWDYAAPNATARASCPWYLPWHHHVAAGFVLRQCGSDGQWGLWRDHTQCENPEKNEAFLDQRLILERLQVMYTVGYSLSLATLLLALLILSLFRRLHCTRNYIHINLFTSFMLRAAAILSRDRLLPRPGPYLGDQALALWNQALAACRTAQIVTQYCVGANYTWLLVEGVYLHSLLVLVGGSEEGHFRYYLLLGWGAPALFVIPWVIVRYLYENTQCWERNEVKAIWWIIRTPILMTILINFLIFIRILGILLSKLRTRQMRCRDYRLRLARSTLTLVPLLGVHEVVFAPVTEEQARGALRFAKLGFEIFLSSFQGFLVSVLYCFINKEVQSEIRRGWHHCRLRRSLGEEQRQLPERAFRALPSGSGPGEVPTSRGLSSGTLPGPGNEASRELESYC
# Summary of the method: (§1)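 Cells were stimulated with peptide for 30 min at 37° C, then lysed in buffer carrying cAMP-d2 and anti-cAMP Eu3+-cryptate for a competitive HTRF read after at least 60 min at room temperature. The 665/620 nm ratio was converted to nM cAMP against a standard curve.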
# hGCGR = target: T2, hGCGR (Homo sapiens, UniProt P47871); assay: Functional cAMP formation (HTRF) in HEK-293 clonal cells expressing hGCGR, 0.1% bovine casein, without or with 1.0% human serum albumin; details: geometric mean, read-out: hGCGR EC50, nM (SEM, n)
# T2 construct: expressed in transfected cells
# T2 sequence (P47871 26-477): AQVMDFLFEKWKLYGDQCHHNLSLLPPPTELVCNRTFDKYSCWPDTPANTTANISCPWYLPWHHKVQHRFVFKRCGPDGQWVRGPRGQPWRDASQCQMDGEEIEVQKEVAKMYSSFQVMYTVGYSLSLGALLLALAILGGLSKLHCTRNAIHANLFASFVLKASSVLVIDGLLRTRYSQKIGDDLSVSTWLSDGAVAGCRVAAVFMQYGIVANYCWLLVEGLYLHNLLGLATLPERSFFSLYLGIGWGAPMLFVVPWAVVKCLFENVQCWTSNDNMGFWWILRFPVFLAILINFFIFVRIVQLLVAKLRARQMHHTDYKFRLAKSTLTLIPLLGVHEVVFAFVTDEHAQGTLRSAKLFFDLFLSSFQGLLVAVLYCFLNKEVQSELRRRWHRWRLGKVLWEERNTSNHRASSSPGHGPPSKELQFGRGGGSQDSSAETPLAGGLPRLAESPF
# Summary of the method: as §1
# hGLP-1R = hGLP-1R (Homo sapiens, UniProt P43220); assay: Functional cAMP formation (HTRF) in HEK-293 clonal cells expressing hGLP-1R, 0.1% bovine casein, without or with 1.0% human serum albumin; design: expressed in transfected cells; details: for EC50: geometric mean, read-out: hGLP-1R EC50, nM (SEM, n); for Emax: read-out: hGLP-1R Emax, % ± SEM
# Chain of hGLP-1R (P43220 24-463): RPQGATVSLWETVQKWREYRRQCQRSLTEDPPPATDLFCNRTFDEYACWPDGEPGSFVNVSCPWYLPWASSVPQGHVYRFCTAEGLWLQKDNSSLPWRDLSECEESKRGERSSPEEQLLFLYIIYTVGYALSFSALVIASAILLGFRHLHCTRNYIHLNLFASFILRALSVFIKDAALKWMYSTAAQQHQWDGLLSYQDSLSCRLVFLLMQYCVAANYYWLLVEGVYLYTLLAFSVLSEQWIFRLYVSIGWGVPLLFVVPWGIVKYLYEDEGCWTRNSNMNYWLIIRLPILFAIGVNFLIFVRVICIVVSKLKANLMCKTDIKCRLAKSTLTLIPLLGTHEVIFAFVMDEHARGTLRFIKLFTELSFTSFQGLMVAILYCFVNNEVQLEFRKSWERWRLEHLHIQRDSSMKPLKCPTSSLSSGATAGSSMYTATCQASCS
# Summary of the method: as §1
# [1] = 0.1% bovine casein and 1.0% human serum albumin, 37° C.
# [2] = HEK293, 0.1% bovine casein and 1.0% human serum albumin, 37° C., percent of maximal response to GIP(1-42)NH2
# [3] = cAMP, incubated at 37° C., 0.1% bovine casein (no human serum albumin)
Compound,EC50 (hGIPR; [1]),Emax (hGIPR; [2]),EC50 (hGIPR; [3]),EC50 (hGCGR; [1]),EC50 (hGCGR; [3]),EC50 (hGLP-1R; [1]),EC50 (hGLP-1R; [3]),"Emax (hGLP-1R; HEK293, 0.1% bovine casein and 1.0% human serum albumin, 37° C., percent of maximal response to GLP-1(7-36)NH2)","Emax (hGIPR; HEK293, percent of maximal response to GIP(1-42)NH2, 37° C., 0.1% bovine casein, arithmetic mean)","Emax (hGLP-1R; HEK293, percent of maximal response to GLP-1(7-36)NH2, 37° C., 0.1% bovine casein, arithmetic mean)"
CC[C@H](C)[C@H](NC(=O)[C@H](CC(C)C)NC(=O)[C@](C)(Cc1ccc(O)cc1)NC(=O)[C@@H](CCC(=O)O)NC(=O)[C@@H](NC(=O)[C@H](Cc1ccccc1)NC(=O)[C@H](CCC(=O)O)NC(=O)C(C)(C)NC(=O)[C@H](CCC(N)=O)NC(=O)[C@H](C)NC(=O)[C@H](CCCCNC(=O)[C@@H](N)CCCCNC(=O)CC[C@H](NC(=O)CCCCCCCCCCCCC(=O)O)C(=O)O)NC(=O)[C@H](CCCN)NC(=O)[C@H](CC(=O)O)NC(=O)[C@H](CC(C)C)NC(=O)[C@](C)(CC(C)C)NC(=O)[C@@H](NC(=O)[C@H](CO)NC(=O)[C@H](Cc1ccncc1)NC(=O)[C@H](CC(=O)O)NC(=O)[C@H](CO)NC(=O)[C@@H](NC(=O)[C@](C)(Cc1ccccc1F)NC(=O)[C@@H](NC(=O)CNC(=O)[C@H](CCC(=O)O)NC(=O)C(C)(C)NC(=O)[C@@H](N)Cc1ccc(O)cc1)[C@@H](C)O)[C@@H](C)O)[C@@H](C)CC)[C@@H](C)CC)C(=O)N[C@@H](CCC(=O)O)C(=O)NCC(=O)NCC(=O)N[C@@H](CCCCNC(=O)[C@@H](N)CCCCNC(=O)CC[C@H](NC(=O)CCCCCCCCCCCCC(=O)O)C(=O)O)C(N)=O [Example 186] (H-Y[Aib]EGT[αMePhe(2-F)]TSD[4Pal]SI[αMeL]LD[Orn]K([εLys-γGlu-C14 diacid])AQ[Aib]EFI[dE][αMeY]LIEGGK([εLys-γGlu-C14 diacid])-NH2; N-terminus assumed),2.19 nM,85.6%,0.0274 nM,> 9950 nM,> 9950 nM,24.3 nM,0.371 nM,,,
CC[C@H](C)[C@H](NC(=O)[C@H](CC(C)C)NC(=O)[C@](C)(Cc1ccc(O)cc1)NC(=O)[C@@H](CCC(=O)O)NC(=O)[C@@H](NC(=O)[C@H](Cc1ccccc1)NC(=O)[C@H](CCC(=O)O)NC(=O)C(C)(C)NC(=O)[C@H](CCC(N)=O)NC(=O)[C@H](C)NC(=O)[C@H](CCCCNC(=O)[C@@H](N)CCCCNC(=O)[C@@H](N)CCCCNC(=O)CC[C@H](NC(=O)CCCCCCCCCCCCC(=O)O)C(=O)O)NC(=O)[C@H](CCCN)NC(=O)[C@H](CC(=O)O)NC(=O)[C@H](CC(C)C)NC(=O)[C@](C)(CC(C)C)NC(=O)[C@@H](NC(=O)[C@H](CO)NC(=O)[C@H](Cc1ccncc1)NC(=O)[C@H](CC(=O)O)NC(=O)[C@H](CO)NC(=O)[C@@H](NC(=O)[C@](C)(Cc1ccccc1F)NC(=O)[C@@H](NC(=O)CNC(=O)[C@H](CCC(=O)O)NC(=O)C(C)(C)NC(=O)[C@@H](N)Cc1ccc(O)cc1)[C@@H](C)O)[C@@H](C)O)[C@@H](C)CC)[C@@H](C)CC)C(=O)N[C@@H](CCC(=O)O)C(=O)NCC(=O)NCC(=O)N[C@@H](CCCCNC(=O)[C@@H](N)CCCCNC(=O)[C@@H](N)CCCCNC(=O)CC[C@H](NC(=O)CCCCCCCCCCCCC(=O)O)C(=O)O)C(N)=O [Example 187] (H-Y[Aib]EGT[αMePhe(2-F)]TSD[4Pal]SI[αMeL]LD[Orn]K([εLys-εLys-γGlu-C14 diacid])AQ[Aib]EFI[dE][αMeY]LIEGGK([εLys-εLys-γGlu-C14 diacid])-NH2; N-terminus assumed),0.939 nM,79.3%,0.026 nM,> 9950 nM,> 9950 nM,18 nM,0.386 nM,109%,,
CC[C@H](C)[C@H](NC(=O)[C@H](CC(C)C)NC(=O)[C@](C)(Cc1ccc(O)cc1)NC(=O)[C@H](CCCCNC(=O)COCCOCCNC(=O)COCCOCCNC(=O)CC[C@H](NC(=O)CCCCCCCCCCCCC(=O)O)C(=O)O)NC(=O)[C@@H](NC(=O)[C@H](Cc1ccccc1)NC(=O)[C@H](CCC(=O)O)NC(=O)C(C)(C)NC(=O)[C@H](CCC(N)=O)NC(=O)[C@H](C)NC(=O)[C@H](CCCCNC(=O)COCCOCCNC(=O)COCCOCCNC(=O)CC[C@H](NC(=O)CCCCCCCCCCCCC(=O)O)C(=O)O)NC(=O)[C@H](CCCN)NC(=O)[C@H](CC(=O)O)NC(=O)[C@H](CC(C)C)NC(=O)[C@](C)(CC(C)C)NC(=O)[C@@H](NC(=O)[C@H](CO)NC(=O)[C@H](Cc1ccncc1)NC(=O)[C@H](CC(=O)O)NC(=O)[C@H](CO)NC(=O)[C@@H](NC(=O)[C@](C)(Cc1ccccc1F)NC(=O)[C@@H](NC(=O)CNC(=O)[C@H](CCC(=O)O)NC(=O)C(C)(C)NC(=O)[C@@H](N)Cc1ccc(O)cc1)[C@@H](C)O)[C@@H](C)O)[C@@H](C)CC)[C@@H](C)CC)C(=O)N[C@@H](CCC(=O)O)C(=O)NCC(=O)NCC(N)=O [Example 189] (H-Y[Aib]EGT[αMePhe(2-F)]TSD[4Pal]SI[αMeL]LD[Orn]K([AEEA-AEEA-γGlu-C14 diacid])AQ[Aib]EFIK([AEEA-AEEA-γGlu-C14 diacid])[αMeY]LIEGG-NH2; N-terminus assumed),,,0.0202 nM,,> 9950 nM,,0.28 nM,,96.6 ± 4.38%,100 ± 3.68%
